From patent US11780852B2, “Methods for treating Crohn's disease using 3-((1R,3s,5S)-3-((7-((5-methyl-1H-pyrazol-3-yl)amino)-1,6-naphthyridin-5-yl)amino)-8-azabicyclo[3.2.1]octan-8-yl)propanenitrile” (priority 2015, dated 2023)

Columns and labels:
[1] = tested on: splenic NK, B and T cells; experiment: Immunosuppression effects in mouse splenic natural killer (NK) cells; format: in vivo, Balb/C mice
Procedure: Assay 8: Immunosuppression Effects in Mouse Splenic Natural Killer (NK) Cells Depletion of mouse splenic cells is an experimental model of immunosuppression (Kudlacz et al., Am. J. of Transplantation, 2004, 4, 51-57). […] Adult male Balb/C mice (12-14 weeks of age) from Harlan were used for the study. […] Spleens were harvested 1 or 2 h post last dose and crushed immediately for cell subtype staining. Prior to fixation, fluorophore-labelled antibodies for CD19 (FITC; B cells), CD3e (PE; pan T cells) and DX5 (APC; NK cells) were incubated with splenocyte samples from each animal to allow for simultaneous, multiple subtype % analysis on the flow cytometer. The number of total spleen cells for each animal was measured by Scepter™ 2.0 Handheld Automated Cell Counter. The absolute number of lymphocyte subtype population (e.g., splenic B, T and NK cells) was calculated from the percentage of each subtype times total spleen cells for each animal. A one way ANOVA, with Dunnett's post hoc test, was used to compare the splenic lymphocytes number of the vehicle and test compound groups. The a level was set at p<0.05. Data were presented as the mean±SEM for each group.

[2] = Pharmacokinetics in plasma and the GI tract in rats; format: in vivo, Sprague Dawley rats; settings: oral dosing in preclinical species
Procedure: Assay 6: Pharmacokinetics in Plasma and the GI Tract in Rats and Dogs A test compound was dosed to male Sprague Dawley rats (n=3) as described in Assay 5. […] At all time points, the plasma concentration was below the limit of quantitation of 0.001 μg/mL.

[3] = tested on: oxazolone-induced colitis; experiment: Mouse model of oxazolone-induced colitis; format: in vivo, BALB/C mice; settings: PO, 1, 3, and/or 10 mg/kg BID (doses up to 10 mg/kg BID)
Procedure: Assay 7: Mouse Model of Oxazalone-Induced Colitis
Oxazolone-induced colitis is an experimental model that has a histological resemblance to human ulcerative colitis (Heller et al. Immunology, 2002, 17, 629-638). Adult BALB/C mice from Harlan were used in the assay. On day 1, animals were lightly anesthetized with isoflurane and the hairs between the shoulder were carefully removed before oxazolone (4%, 150 μL, 4:1 acetone:olive oil formulation) or vehicle solution was slowly applied for skin sensitization. Seven days after skin sensitization, the mice were fasted overnight, anesthetized with isoflurane inhalation, and a 1 mL syringe equipped with a 3.5-F catheter, filled with oxazolone solution, was inserted carefully about 4 cm into the colon of the mouse. Following insertion, 50 μL of the oxazolone solution (1%, 1:1 ethanol:water formulation) was injected very slowly (over 30 sec using an injection pump) into the colon. The catheter was removed and the mice were held vertically (head down) for 2 min to ensure that the entire oxazolone solution remained inside the colon. Drug treatment (PO, BID or TID) or vehicle was initiated a day prior to the oxazolone intrarectal (IR) challenge. Two-day post oxazolone intrarectal challenge, the Disease Activity Index (DAI) was assessed by treatment-blinded experimenters for each mouse according to the criteria score: stool consistency score (0, normal; 2, loose; 4, diarrhea), gross bleeding score (0, absence; 2, blood tinged; 4, presence), and weight loss score (0, none; 1, 1%-5%; 2, 5%-10^%; 3, 10%-20%; 4, more than 20%); DAI=average of (stool consistency score+gross bleeding score+weight loss score).
Selected compounds of the invention were tested in the assay. Efficacy in the model is evidenced by a decrease in DAI score as compared with the score from vehicle treated animals.

[4] = First in human study of safety, tolerability and pharmacokinetics in healthy subjects; format: in vivo; settings: by comparison to other orally administered compounds
Procedure: Assay 9: First in Human Study to Evaluate the Safety, Tolerability and Pharmacokinetics in Healthy Subjects
The compound of Example 1 was evaluated in a double-blinded, randomized, placebo-controlled, single ascending dose (SAD) and multiple ascending dose (MAD) study of safety, tolerability, and pharmacokinetics in healthy subjects. Pharmacokinetic samples were collected up to 72 hours post the final dose in both the SAD study (after the first dose) and MAD study (after 14 days of once-daily dosing). The SAD study enrolled 5 cohorts and the MAD study enrolled 4 cohorts totaling 72 subjects, of which 71 completed the dosing period.
Plasma pharmacokinetic (PK) parameters were determined by non-compartmental analysis using WinNonLin Version 6.4.0 (Pharsight, St Louis, Mo.). The plasma PK parameter presented here is:
Cmax: maximum concentration in plasma

## Cc1cc(Nc2cc3ncccc3c(N[C@@H]3C[C@H]4CC[C@@H](C3)N4CCC#N)n2)n[nH]1 [Example 1, 3-((1R,3s,5S)-3-((7-((5-methyl-1H-pyrazol-3-yl)amino)-1,6-naphthyridin-5-yl)amino)-8-azabicyclo[3.2.1]octan-8-yl)propanenitrile]
[1]; mice, same dose required for efficacy in the oxazolone model
  effect of immunosuppression: minimal effect
[1]; mouse, PO BID three days
  B and T cell populations (spleen): No treatment effect
[1]; mouse, PO BID three days, tofacitinib 30 mg/kg, Example 1 up to 100 mg/kg
  splenic NK cell counts: unaffected
[2]
  exposure throughout the gastrointestinal tract versus exposure in plasma: significantly higher exposure
[3]
  DAI score as compared with vehicle treated animals: statistically significant decrease
[4]
  oral bioavailability: very low
